Results reported in patent publication US20240158386A1, “BENZOXAZOLONE INHIBITORS OF INFLAMMASOMES” (ICAHN SCHOOL OF MEDICINE AT MOUNT SINAI, priority 2021, published 2024).
Read-outs that look alike come from different tables or passages of the source.

Assays:
NLRP3 = test: In-vivo assessment of C77: brain cytokines in LPS-treated mice; parameters: species or system WT C57BL/6J mice
Experimental: (§1) Cytokine quantification. IL-1β in cell supernatants and brain tissue samples—after the different treatment groups—was quantified using the Mouse IL-1 beta/IL-1F2 DuoSet ELISA kit (R&D systems), IL-6 in cell culture supernatant was measured through the Mouse IL-6 ELISA kit (ThermoFisher), TNF-α in cell culture supernatants was determined using the Mouse TNF-alpha DuoSet ELISA (R*D systems), and IL-18 in brain tissue was measured through the IL-18 Mouse ELISA Kit (Invitrogen) following the manufacturers' recommended protocol. IL-1β precursor and cleaved IL-1β in the FC of mice treated with vehicles, LPS, or C77-LPS was assessed by western blot. All samples were run in technical duplicates.
(§2) Animals used in in-vivo assessments. WT C57BL/6J mice (stock #000664) were obtained from The Jackson Laboratory. Mice were housed in groups of five animals per cage on a 12:12 hours light/dark cycle. Water and food were provided ad libitum. 8-10 weeks males were used for experiments. All procedures were approved by the Institutional Animal Care and use Committee of the Icahn School of Medicine at Mount Sinai.
In-vivo assessment of C77. The ability of C77 to inhibit NLRP3 in-vivo was evaluated using WT C57BL/6J mice. C77 (50 mg/kg), or the same volume of DMSO vehicle, was intraperitoneally injected 2 hours before of LPS (15 mg/kg) or vehicle (PBS) administration. 1.5 hours later, the animals were sacrificed and their brain was isolated. Cortex, frontal cortex, hippocampus, and cerebellum regions from the right hemisphere were obtained for IL-1β analysis. The left hemisphere was used for gene expression analysis. N=5 animals per group.

[1] = system: inflammasome priming (NLRP3, caspase-1, IL-1β, TNF-α, IL6, NLRC4 expression); test: In-vivo assessment of C77: RNA expression of inflammatory genes in mouse brain; parameters: species or system WT C57BL/6J mice; conditions: 50 mg/kg 2 hours before LPS administration
Experimental: (§3) Gene expression analysis. RNA was isolated from frontal cortex from C57BL/6J mice or from THP1 human cultures using the RNeasy Mini Kit (QIAGEN, Hilden, Germany), following the recommendations of the manufacturer. RNA concentration was determined, and cDNA was synthesized using the High-Capacity cDNA Reverse Transcription Kit with RNase Inhibitor (applied biosystems™). The expression levels of inflammatory genes—NLRP3, caspase-1, IL-1β, TNF-α, NLRC4, IL-18, and IL6—were determined in 4 replicates through PowerUp SYBER Green Master Mix (Thermofisher) using an ABI PRISM […] Sequence Detection System. Hypoxanthine phosphoribosyltransferase (HPRT) was used as an internal control in samples from mouse brains, and GAPDH in the case of THP1 lysates. Gene expression levels were normalized to control samples (mice or THP1 cells treated with PBS).
as §2
In-vivo assessment of C77. The ability of C77 to inhibit NLRP3 in-vivo was evaluated using WT C57BL/6J mice. […]

[2] = system: NLRP3, caspase-1, IL-1β, IL-6, IL-8, and TNF-α gene expression; test: Gene expression analysis in cell cultures (FIG. 3C); type: cell-based, human
Experimental: as §3

microglia cultures = test: Cell viability assay (CytoTox 96 cytotoxicity); type: cell-based, murine
Experimental: (§4) NLRP3 inflammasome activation assay. Primary microglia cultures were incubated with the compounds that inhibited IL-1β production in THP1 macrophages. Cells pretreated with 100 μM of the compounds—or with the same DMSO volume, in the case of control samples—were primed with 400 ng/ml LPS for 3 hours, and activated with 4.5 mM ATP for 45 minutes or […] nigericin for 1 hour. Dose-response curves were conducted by incubating microglia cultures with different concentrations of the selected compounds, ranging from 0.001 to 100 μM, 1 hour before NLRP3 activation with LPS and ATP. Supernatants were collected for IL-1β and toxicity assessments.
Cell viability assays. The cytotoxic effect of the compounds identified by in-vitro screening was assayed with the Cyto Tox 96® NonRadioactive Cytotoxicity Assay (Promega), following the recommendations of the manufacturer.

NLRP3 inflammasome = target: T1, NLRP3 inflammasome (Mus musculus, UniProt Q8R4B8); test: NLRP3 inflammasome activation assay: IL-1β release by primary microglia after LPS and ATP; type: cell-based, murine
T1 construct: endogenous in cells; host or cells: primary microglia from cortices of 2-3 day old WT mouse pups
Experimental: Murine primary microglia. Mixed cortical cultures were prepared as previously described (Bronstein, R. et al. J. Vis. Exp. JoVE 50647 (2013) doi:10.3791/50647). Briefly, cortices from 2-3 days old, WT, or NLRP3 KO pups were isolated, digested, and seeded at a density of 8 cortices per 10 ml petri dish. Every three days, the medium was replaced by fresh culture medium (DMEM, 10% FBS, 1% penicillin-streptomycin). After three weeks, mixed glial cultures had reached confluence, and microglia cells were isolated by mild trypsinization as previously described (Saura, J. et al. Glia 44, 183-189 (2003)). In brief, cells were washed with culture medium without FBS and treated with a mixture of trypsin 0.25% (without EDTA) and DMEM-F12 medium in a 1:3 proportion. After an incubation period of approximately 40 min, an intact layer of mixed glial cells detached, leaving microglia attached firmly to the bottom of the Petri-dish. Pure microglia were then isolated by 15 min incubation with trypsin (0.05%)-EDTA at 37° C., followed by gentle shaking. Cells were counted and seeded at the desired density, typically 7.5·10^4 cells/well in 24 well-plates.
as §4, §1

[3] = target: T2, Human recombinant NLRP3 protein (Homo sapiens, UniProt Q96P20); test: Inhibition of the NLRP3 ATPase activity (cell-free, ADP-Glo); type: biochemical; conditions: isolated protein, 10 μM ATP
T2 construct: purchased BPS Bioscience, San Diego CA
Experimental: Inhibition of the NLRP3 ATPase activity. The efficacy of C77 to inhibit ATP hydrolysis by NLRP3 was directly assayed using a cell-free assay. Human recombinant NLRP3 protein (BPS Bioscience, San Diego CA) was incubated at 37° C. with different concentrations of C77 for 20 min, as previously described (Cocco, M., et al. (2017) Development of an Acrylate Derivative Targeting the NLRP3 Inflammasome for the Treatment of Inflammatory Bowel Disease. J. Med. Chem. 60, 3656-3671). 10 μM ultrapure ATP was then added, and reaction mixtures were further incubated for 45 min. ATP conversion into ADP was determined using the ADP-Glo Kinase Assay (Promega), following the recommendations of the manufacturer, in a SpectraMax i3x Multimode Detection Platform.

[4] = 50 mg/kg IP 2 hours before 15 mg/kg LPS IP

T1 sequence (Q8R4B8 whole entry): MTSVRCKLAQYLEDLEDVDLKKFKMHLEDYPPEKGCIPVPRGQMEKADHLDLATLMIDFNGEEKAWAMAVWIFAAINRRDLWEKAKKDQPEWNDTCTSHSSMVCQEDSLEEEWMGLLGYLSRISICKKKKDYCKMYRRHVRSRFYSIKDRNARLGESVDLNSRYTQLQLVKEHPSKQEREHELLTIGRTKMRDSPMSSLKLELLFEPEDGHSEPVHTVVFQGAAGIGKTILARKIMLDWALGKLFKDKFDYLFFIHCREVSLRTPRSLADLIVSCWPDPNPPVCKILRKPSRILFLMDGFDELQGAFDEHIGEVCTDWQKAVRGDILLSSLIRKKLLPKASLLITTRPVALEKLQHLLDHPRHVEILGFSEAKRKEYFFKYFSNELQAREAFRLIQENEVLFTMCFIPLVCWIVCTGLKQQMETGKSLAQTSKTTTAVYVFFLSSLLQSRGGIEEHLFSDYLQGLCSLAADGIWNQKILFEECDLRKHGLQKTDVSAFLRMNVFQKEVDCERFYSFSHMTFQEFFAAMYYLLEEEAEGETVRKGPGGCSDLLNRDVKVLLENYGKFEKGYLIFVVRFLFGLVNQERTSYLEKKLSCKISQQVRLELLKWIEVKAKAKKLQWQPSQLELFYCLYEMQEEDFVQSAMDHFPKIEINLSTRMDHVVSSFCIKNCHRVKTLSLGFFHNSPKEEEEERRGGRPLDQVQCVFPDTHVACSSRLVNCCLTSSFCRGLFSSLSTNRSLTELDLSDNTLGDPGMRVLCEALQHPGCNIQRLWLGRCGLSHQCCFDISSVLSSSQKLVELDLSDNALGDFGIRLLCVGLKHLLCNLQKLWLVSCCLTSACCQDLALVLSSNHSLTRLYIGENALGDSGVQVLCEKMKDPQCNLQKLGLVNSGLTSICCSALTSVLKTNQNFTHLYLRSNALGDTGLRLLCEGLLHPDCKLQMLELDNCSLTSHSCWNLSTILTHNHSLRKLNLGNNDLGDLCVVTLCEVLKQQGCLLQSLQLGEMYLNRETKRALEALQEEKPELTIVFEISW
T2 sequence (Q96P20 whole entry): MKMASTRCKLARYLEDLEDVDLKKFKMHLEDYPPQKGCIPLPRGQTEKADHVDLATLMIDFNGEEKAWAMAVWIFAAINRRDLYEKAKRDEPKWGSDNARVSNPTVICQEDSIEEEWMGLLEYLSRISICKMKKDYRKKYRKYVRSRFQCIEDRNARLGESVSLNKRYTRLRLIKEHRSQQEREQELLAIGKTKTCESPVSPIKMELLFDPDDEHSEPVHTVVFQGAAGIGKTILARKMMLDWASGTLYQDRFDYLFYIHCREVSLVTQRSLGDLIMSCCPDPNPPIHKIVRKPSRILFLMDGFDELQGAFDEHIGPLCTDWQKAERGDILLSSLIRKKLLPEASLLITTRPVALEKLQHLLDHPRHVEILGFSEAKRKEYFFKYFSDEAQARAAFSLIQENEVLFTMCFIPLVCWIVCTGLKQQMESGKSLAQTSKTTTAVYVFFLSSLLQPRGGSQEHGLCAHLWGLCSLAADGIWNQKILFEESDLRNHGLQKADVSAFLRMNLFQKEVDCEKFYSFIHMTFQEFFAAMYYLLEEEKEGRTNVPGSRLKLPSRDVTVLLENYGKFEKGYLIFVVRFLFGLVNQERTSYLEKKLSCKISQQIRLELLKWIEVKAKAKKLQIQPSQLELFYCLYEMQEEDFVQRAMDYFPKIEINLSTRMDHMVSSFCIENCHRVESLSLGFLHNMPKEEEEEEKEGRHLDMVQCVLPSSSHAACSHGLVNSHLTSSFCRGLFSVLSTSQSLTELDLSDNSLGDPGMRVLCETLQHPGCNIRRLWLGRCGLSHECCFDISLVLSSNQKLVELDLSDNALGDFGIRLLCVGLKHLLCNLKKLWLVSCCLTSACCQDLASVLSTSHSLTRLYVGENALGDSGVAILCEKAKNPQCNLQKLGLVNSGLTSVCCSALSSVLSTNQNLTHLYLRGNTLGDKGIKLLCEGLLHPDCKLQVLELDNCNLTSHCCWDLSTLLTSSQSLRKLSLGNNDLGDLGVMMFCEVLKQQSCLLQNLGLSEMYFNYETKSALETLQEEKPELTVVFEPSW

concentrations exerting inhibitory effects on NLRP3-mediated IL-1β (NLRP3 inflammasome; FIG. 2C, microglia, LPS and ATP): ≥ 100 nM
IC50 (NLRP3 inflammasome; FIG. 3A, read-out: NLRP3 IC50): 3.54 ± 1.3 µM
[Cx] to reach 100% of inhibition (NLRP3 inflammasome; IL-1β release, microglia, LPS and ATP): lower than 25 μM
IC50 (NLRP3 inflammasome; IL-1β release, microglia, LPS and ATP, nonlinear fit of dose-response, read-out: IC50): 4.1 ± 2.1 µM
concentrations with statistically significant inhibition of NLRP3 ATPase activity [3]: ≥ 10 nM
IC50 ([3]; nonlinear fit): 0.04 µM
SMILES: O=C(Cn1c(=O)oc2ccccc21)NCc1cncc(-c2ccsc2)c1 [Compound C77]
IL-1β levels in the cerebellum (NLRP3; [4]): significantly reduced IL-1β levels
IL-1β levels in the frontal cortex (NLRP3; [4]): significantly reduced IL-1β levels
IL-1β levels in the hippocampus (NLRP3; [4]): significantly reduced IL-1β levels
IL-18 levels in the frontal cortex (NLRP3; [4]): significantly reduced IL-18 levels
cleaved IL-1β versus pro IL-1β by western blot (NLRP3; frontal cortex of mice treated with C77-LPS): reduces the cleaved form of IL-β and not pro IL-1β
overexpression of inflammatory genes (NLRP3, IL1β, TNF-α, IL6) in mouse brain [1]: did not reduce the overexpression of these genes
expression of caspase-1 [2]: slightly reduced the expression of caspase-1
mRNA levels of IL-6, IL-8, or TNF-α [2]: did not modify the mRNA levels
transcriptional priming of NLRP3 or IL-1β [2]: did not affect the transcriptional priming
toxicity on microglia cultures (microglia cultures; 50 μM): significantly reduced the viability of the culture
toxicity on microglia cultures (microglia cultures; concentrations lower than 50 μM): did not show significant toxicity levels
inhibition of IL-1β release upon NLRP3 activation (NLRP3 inflammasome; 100 μM compound, microglia, LPS and ATP): inhibited NLRP3 with statistical significance
